# Laboratory results as given in ChEMBL document CHEMBL1759899, “Design and synthesis of several small-size HTLV-I protease inhibitors with different hydrophilicity profiles” (Bioorg Med Chem Lett, 2011).
# Numbered stars: 1 amine (or outer) side, 2 acyl side, 3 side chain; on linkers, the order of the positions; unused ones are H or OH. Square brackets hold non-standard residues; d marks the D form. Peptide text beside a SMILES is read from it. * marks the point of attachment. X1 = O=C([C@@H](O)[C@H](Cc1ccccc1)N[*:1])[*:2]; Thz(5,5-Me2) = CC1(C)SCN[C@@H]1C(=O)O; Phg = N[C@H](C(=O)O)c1ccccc1; Tle = CC(C)(C)[C@H](N)C(=O)O; Dap = NC[C@H](N)C(=O)O; NHCH2tBu = CC(C)(C)CN*
# What was measured:
# [1] = tested on: T1, Protease (Human T-cell leukemia virus type I), Q82134 [L40I]; experiment: Inhibition of HTLV-1 recombinant protease L40I mutant at 50 nM
# T1 sequence (whole entry): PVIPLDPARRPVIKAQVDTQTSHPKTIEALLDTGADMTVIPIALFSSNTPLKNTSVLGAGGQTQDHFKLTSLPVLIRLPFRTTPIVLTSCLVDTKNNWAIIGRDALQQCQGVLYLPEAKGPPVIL
# [2] = molecular target: Protease (Human immunodeficiency virus 1) (UniProt Q9YQ12); experiment: Inhibition of HIV1 recombinant protease at 50 nM
# Chain of Protease (Human immunodeficiency virus 1) (Q9YQ12 as listed by the source): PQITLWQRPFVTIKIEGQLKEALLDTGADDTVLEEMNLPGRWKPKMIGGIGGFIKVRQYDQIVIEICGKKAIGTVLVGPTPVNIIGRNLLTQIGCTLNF
# Protease = Protease (Human T-cell leukemia virus type I, UniProt Q82134, L40I); experiment: Inhibition of HTLV-1 recombinant protease L40I mutant
Structure (SMILES),inhibition [1],inhibition [2],IC50 (Protease)
CC(C)(C)CNC(=O)[C@H]1N(C(=O)[C@@H](O)[C@H](Cc2ccccc2)NC(=O)[C@@H](NC(=O)[C@@H](N)c2ccccc2)C(C)(C)C)CSC1(C)C,38%,,
CC(C)(C)CNC(=O)[C@H]1N(C(=O)[C@@H](O)[C@H](Cc2ccccc2)NC(=O)[C@@H](NC(=O)[C@@H](NCc2ccccc2)c2ccccc2)C(C)(C)C)CSC1(C)C,44%,92%,
CCCC(=O)N[C@H](C(=O)N[C@H](C(=O)N[C@@H](Cc1ccccc1)[C@H](O)C(=O)N1CSC(C)(C)[C@H]1C(=O)NCC(C)(C)C)C(C)(C)C)c1ccccc1,,99%,
CN[C@H](C(=O)N[C@H](C(=O)N[C@@H](Cc1ccccc1)[C@H](O)C(=O)N1CSC(C)(C)[C@H]1C(=O)NCC(C)(C)C)C(C)(C)C)c1ccccc1,38%,> 99%,31.4 nM
"CC(C)(C)CNC(=O)[C@H]1N(C(=O)[C@@H](O)[C@H](Cc2ccccc2)NC(=O)[C@@H](NC(=O)[C@@H](NC(=O)[C@@H](N)CN)c2ccccc2)C(C)(C)C)CSC1(C)C (H-[Dap][Phg][Tle][X1][Thz(5,5-Me2)]-NHCH2tBu)",8%,72%,
CN(C)[C@H](C(=O)N[C@H](C(=O)N[C@@H](Cc1ccccc1)[C@H](O)C(=O)N1CSC(C)(C)[C@H]1C(=O)NCC(C)(C)C)C(C)(C)C)c1ccccc1,38%,99%,
"CC(C)(C)CNC(=O)[C@H]1N(C(=O)[C@@H](O)[C@H](Cc2ccccc2)NC(=O)[C@@H](NC(=O)[C@@H](NC(=O)CN)c2ccccc2)C(C)(C)C)CSC1(C)C (H-G[Phg][Tle][X1][Thz(5,5-Me2)]-NHCH2tBu)",,94%,41.1 nM
CCN[C@H](C(=O)N[C@H](C(=O)N[C@@H](Cc1ccccc1)[C@H](O)C(=O)N1CSC(C)(C)[C@H]1C(=O)NCC(C)(C)C)C(C)(C)C)c1ccccc1,38%,99%,25.5 nM
COC(=O)N[C@H](C(=O)N[C@H](C(=O)N[C@@H](Cc1ccccc1)[C@H](O)C(=O)N1CSC(C)(C)[C@H]1C(=O)NCC(C)(C)O)C(C)(C)C)c1ccccc1,,99%,39.1 nM
CCN(CC)[C@H](C(=O)N[C@H](C(=O)N[C@@H](Cc1ccccc1)[C@H](O)C(=O)N1CSC(C)(C)[C@H]1C(=O)NCC(C)(C)C)C(C)(C)C)c1ccccc1,39%,98%,
COC(=O)N[C@H](C(=O)N[C@H](C(=O)N[C@@H](Cc1ccccc1)[C@H](O)C(=O)N1CSC(C)(C)[C@H]1C(=O)NCC(C)(C)C)C(C)(C)C)c1ccccc1,,99%,7.2 nM
COC(=O)N[C@H](C(=O)N[C@H](C(=O)N[C@@H](Cc1ccccc1)[C@H](O)C(=O)N1CSC(C)(C)[C@H]1C(=O)NNC(C)(C)C)C(C)(C)C)c1ccccc1,,99%,10.4 nM
CC(C)(C)CNC(=O)[C@H]1N(C(=O)[C@@H](O)[C@H](Cc2ccccc2)NC(=O)[C@@H](NC(=O)[C@@H](NC(=O)CCN)c2ccccc2)C(C)(C)C)CSC1(C)C,90%,99%,5.7 nM
CC(C)(C)CNC(=O)[C@H]1N(C(=O)[C@@H](O)[C@H](Cc2ccccc2)NC(=O)[C@@H](NC(=O)[C@@H](NC(=O)CCCN)c2ccccc2)C(C)(C)C)CSC1(C)C,,99%,25.4 nM
CC(C)(C)CNC(=O)[C@H]1N(C(=O)[C@@H](O)[C@H](Cc2ccccc2)NC(=O)[C@@H](NC(=O)[C@@H](NC(=O)C(C)(CO)CO)c2ccccc2)C(C)(C)C)CSC1(C)C,18%,86%,
